{"source": "patent US10870639B2", "about": "“Pyrimidine compounds and pharmaceutical compositions for preventing or treating cancers including the same” (HANMI PHARM. CO., LTD., priority 2018, dated 2020)", "key": {"[1]": {"assay": "Microsomal stability, mice microsomes", "type": "in vitro ADME", "conditions": "residual amount % after 1 hour, 37° C., 5 μM, NADPH regenerating system"}, "[2]": {"assay": "Microsomal stability, human liver microsomes", "type": "in vitro ADME", "conditions": "residual amount % after 1 hour, 37° C., 5 μM, 1 mg/ml microsomes, NADPH regenerating system", "procedure": "To confirm the reactivity of the test substances with intra-hepatic CYP450 enzymes, 5 μM test substances and 1 mg/ml human liver microsomes were incubated for 1 hour at a temperature of 37° C. in the presence of an NADPH regenerating system. After 1 hour, acetonitrile was added to terminate the reaction, and the supernatant obtained by centrifugation was analyzed by HPLC. The remaining amount % was calculated using the following equation using the value of the reacted sample for 1 hour relative to the value of the 0-minute sample as the peak value obtained as an analysis result. (Peak value of the sample reacted for 1 hour/peak value of the sample at 0 minutes)×100=residual amount %"}, "MOLM-13": {"system": "MOLM-13", "assay": "Cell growth inhibition (MTS), MOLM-13", "type": "cell-based", "conditions": "Homo sapiens, MOLM-13, 72 h, incubation three days", "procedure": "(§1) The human acute myelogenous leukemia […] cell line MOLM-13 (DSMZ no. ACC 554) was incubated in RPM11640 medium supplemented with 20% heat-inactivated FBS at a temperature of 37° C. The incubated cell line was prepared in an amount of 2.0×10^4 cells/100 μL, and then plated on a 96-well plate. The RPMI1640 medium was serially diluted with the test compounds at a concentration in a range of 1 μM to 0.01 nM at a ratio of 1:10. Subsequently, incubation was performed thereon for three days. For the human acute myelogenous leukemia cell line MV-4-11 cell line (ATCC® CRL-9591™), the cells were incubated at a temperature of 37° C. in IMDM medium supplemented with 10% FBS. The incubated cell line was prepared in an amount of 2×10^4 cells/100 μL, and then plated on a 96-well plate. The IMDM medium was treated with cascade dilution of three test compounds at a concentration in a range of 1 μM to 0.01 nM at a rate of 1/10. Subsequently, incubation was performed thereon for three days. MTS test was performed to measure cell viability, and the growth inhibition (GI50) value of the cell line was calculated using GraphPad Prism software."}, "VEGFR2 (KDR)": {"target": "VEGFR2 (KDR) (Homo sapiens (Human), UniProt P35968)", "sequence (P35968 20-1356)": "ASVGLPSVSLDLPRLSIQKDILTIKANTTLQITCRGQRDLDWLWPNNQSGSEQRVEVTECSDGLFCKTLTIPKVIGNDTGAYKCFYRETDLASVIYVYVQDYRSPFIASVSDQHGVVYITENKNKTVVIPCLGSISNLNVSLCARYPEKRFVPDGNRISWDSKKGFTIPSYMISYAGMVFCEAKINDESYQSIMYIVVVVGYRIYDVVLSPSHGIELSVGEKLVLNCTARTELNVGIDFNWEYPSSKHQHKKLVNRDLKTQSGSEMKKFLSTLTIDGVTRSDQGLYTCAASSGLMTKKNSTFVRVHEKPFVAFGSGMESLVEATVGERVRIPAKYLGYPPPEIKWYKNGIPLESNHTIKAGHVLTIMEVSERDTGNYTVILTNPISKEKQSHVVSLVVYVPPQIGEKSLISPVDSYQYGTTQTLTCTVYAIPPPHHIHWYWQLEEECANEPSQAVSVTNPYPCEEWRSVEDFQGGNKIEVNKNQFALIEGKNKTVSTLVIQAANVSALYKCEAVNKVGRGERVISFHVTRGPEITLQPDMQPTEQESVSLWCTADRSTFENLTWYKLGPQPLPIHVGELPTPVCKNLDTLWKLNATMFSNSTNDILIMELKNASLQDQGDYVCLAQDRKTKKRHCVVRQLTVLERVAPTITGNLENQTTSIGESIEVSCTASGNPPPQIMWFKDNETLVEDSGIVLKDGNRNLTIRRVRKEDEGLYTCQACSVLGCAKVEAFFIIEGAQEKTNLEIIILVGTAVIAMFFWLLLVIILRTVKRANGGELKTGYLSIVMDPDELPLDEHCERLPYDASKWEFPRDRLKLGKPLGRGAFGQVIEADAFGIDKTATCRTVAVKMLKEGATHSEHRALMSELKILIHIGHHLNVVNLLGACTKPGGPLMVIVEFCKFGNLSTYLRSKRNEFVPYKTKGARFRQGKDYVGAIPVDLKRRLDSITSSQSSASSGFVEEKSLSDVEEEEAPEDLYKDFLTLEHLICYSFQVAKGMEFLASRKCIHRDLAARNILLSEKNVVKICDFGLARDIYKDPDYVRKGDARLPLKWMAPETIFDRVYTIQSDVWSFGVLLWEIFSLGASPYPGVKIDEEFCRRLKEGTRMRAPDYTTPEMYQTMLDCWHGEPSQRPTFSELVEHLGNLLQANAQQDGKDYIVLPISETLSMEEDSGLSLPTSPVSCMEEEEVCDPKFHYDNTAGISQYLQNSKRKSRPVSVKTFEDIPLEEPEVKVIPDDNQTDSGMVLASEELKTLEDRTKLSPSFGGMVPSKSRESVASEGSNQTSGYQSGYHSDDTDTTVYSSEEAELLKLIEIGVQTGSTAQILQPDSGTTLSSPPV", "assay": "z-LYTE kinase assay, VEGFR2", "type": "biochemical", "conditions": "compound concentration 100 nM"}, "SYK": {"target": "SYK (Homo sapiens (Human), UniProt P43405)", "assay": "z-LYTE kinase assay, SYK", "type": "biochemical", "conditions": "compound concentration 100 nM", "procedure": "The SYK inhibitory activity of the compounds was evaluated based on z-LYTE technology developed by Thermo Fisher Scientific Inc. According to this evaluation method, signals of the fluorescence of FRET-peptides are measured, wherein fluorescence of a FRET-peptide which is phosphorylated by the […] and fluorescence of a non-phosphorylated peptide are measured to identify an activity with respect to kinase. […] The background signal was measured in the absence of proteins; a non-inhibitory signal was measured only when the solvent (1% DMSO) was added; and an evaluation compound was used at a concentration of 100 nM to calculate the SYK inhibitory activity of the evaluation compound as a percentage (%)."}, "MV-4-11": {"system": "MV-4-11", "assay": "Cell growth inhibition (MTS), MV-4-11", "type": "cell-based", "conditions": "Homo sapiens, MV4-11, 72 h, incubation three days", "procedure": "as §1"}, "FLT3 ITD": {"target": "FLT3 ITD (Homo sapiens, UniProt P36888, ITD)", "sequence (P36888 whole entry, looked up, change not shown)": "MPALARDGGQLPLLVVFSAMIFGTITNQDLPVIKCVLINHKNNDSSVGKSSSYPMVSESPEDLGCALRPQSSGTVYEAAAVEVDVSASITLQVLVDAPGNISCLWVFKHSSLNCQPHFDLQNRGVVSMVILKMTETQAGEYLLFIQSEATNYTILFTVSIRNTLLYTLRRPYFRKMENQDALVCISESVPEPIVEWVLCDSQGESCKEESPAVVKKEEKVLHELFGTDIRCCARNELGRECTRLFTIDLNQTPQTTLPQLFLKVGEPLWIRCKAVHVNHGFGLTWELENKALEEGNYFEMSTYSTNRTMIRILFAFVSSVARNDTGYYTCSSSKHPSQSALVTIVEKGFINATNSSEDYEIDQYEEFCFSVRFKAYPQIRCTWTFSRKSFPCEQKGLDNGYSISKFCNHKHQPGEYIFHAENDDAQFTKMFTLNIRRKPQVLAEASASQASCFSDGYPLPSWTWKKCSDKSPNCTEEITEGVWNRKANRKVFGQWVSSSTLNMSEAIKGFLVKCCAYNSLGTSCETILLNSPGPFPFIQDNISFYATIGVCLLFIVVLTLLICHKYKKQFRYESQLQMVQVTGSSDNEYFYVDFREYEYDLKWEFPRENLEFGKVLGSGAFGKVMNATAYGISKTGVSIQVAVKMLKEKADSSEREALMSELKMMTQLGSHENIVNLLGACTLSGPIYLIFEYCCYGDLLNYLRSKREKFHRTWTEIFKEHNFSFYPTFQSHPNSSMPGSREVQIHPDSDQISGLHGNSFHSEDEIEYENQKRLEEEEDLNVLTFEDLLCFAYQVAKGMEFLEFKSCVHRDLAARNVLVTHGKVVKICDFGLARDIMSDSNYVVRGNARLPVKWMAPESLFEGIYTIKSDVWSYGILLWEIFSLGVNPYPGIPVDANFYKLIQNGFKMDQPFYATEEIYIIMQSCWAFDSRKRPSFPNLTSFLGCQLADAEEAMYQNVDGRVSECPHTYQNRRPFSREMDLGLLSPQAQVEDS", "assay": "LanthaScreen kinase binding assay, FLT3 ITD", "description": "The inhibitory activity of some of the compounds described above against FLT3-ITD, FLT3 wild type (WT), VEGFR2 (KDR), and SYK kinase was measured.\nThis experiment was carried out on a 384-well plate in conditions including 50 mM HEPES pH 7.5, 0.01% BRIJ-35, 10 mM MgCl2, 1 mM EGTA, and 1% DMSO."}}, "data": [{"smiles": "CCN(CC)C1CCN(c2cc(Nc3ncc(Cl)c(-c4c[nH]c5cc(C)ccc45)n3)cc(C3CC3)c2)CC1", "note": "[Control Compound 6, reference compound]", "values": [{"measurement": "Mice microsomal stability (%)", "setting": "[1]", "value": 29, "unit": "%"}, {"measurement": "Human microsomal stability (%)", "setting": "[2]", "value": 49, "unit": "%"}]}, {"smiles": "C[C@@H]1CN(Cc2cc(Nc3ncc(Cl)c(-c4c[nH]c5cc(F)ccc45)n3)cc(C3CC3)c2)C[C@H](C)N1", "note": "[Example 1, 5-chloro-N-(3-cyclopropyl-5-(((3R,5S)-3,5-dimethylpiperazine-1-yl)methyl)phenyl)-4-(6-fluoro-1H-indole-3-yl)pyrimidine-2-amine]", "values": [{"measurement": "GI50", "setting": "MOLM-13", "value": 4, "unit": "nM"}, {"measurement": "inhibition at 0.1 µM", "setting": "VEGFR2 (KDR)", "value": 95, "unit": "%"}, {"measurement": "inhibition at 0.1 µM", "setting": "SYK", "value": 73, "unit": "%"}, {"measurement": "GI50", "setting": "MV-4-11", "value": 1.2, "unit": "nM"}]}, {"smiles": "Cc1ccc2c(-c3nc(Nc4cc(CN5C[C@@H](C)N(CCO)[C@@H](C)C5)cc(C5CC5)c4)ncc3Cl)c[nH]c2c1", "note": "[Example 5, 2-((2R,6S)-4-(3-((5-chloro-4-(6-methyl-1H-indole-3-yl)pyrimidine-2-yl)amino)-5-cyclopropylbenzyl)-2,6-dimethylpiperazine-1-yl)ethane-1-ol]", "values": [{"measurement": "GI50", "setting": "MOLM-13", "value": 0.8, "unit": "nM"}, {"measurement": "inhibition at 0.1 µM", "setting": "VEGFR2 (KDR)", "value": 71, "unit": "%"}, {"measurement": "inhibition at 0.1 µM", "setting": "SYK", "value": 78, "unit": "%"}, {"measurement": "GI50", "setting": "MV-4-11", "value": 0.5, "unit": "nM"}, {"measurement": "IC50", "setting": "FLT3 ITD", "value": 7.2, "unit": "nM"}]}, {"smiles": "Cc1ccc2c(-c3nc(Nc4cc(CN5C[C@@H](C)N[C@@H](C)C5)cc(C5CC5)c4)ncc3Cl)c[nH]c2c1", "note": "[Example 8, 5-chloro-N-(3-cyclopropyl-5-(((3R,5S)-3,5-dimethylpiperazine-1-yl)methyl)phenyl)-4-(6-methyl-1H-indole-3-yl)pyrimidine-2-amine]", "values": [{"measurement": "GI50", "setting": "MOLM-13", "value": 5.2, "unit": "nM"}, {"measurement": "inhibition at 0.1 µM", "setting": "VEGFR2 (KDR)", "value": 100, "unit": "%"}, {"measurement": "inhibition at 0.1 µM", "setting": "SYK", "value": 95, "unit": "%"}, {"measurement": "GI50", "setting": "MV-4-11", "value": 1.3, "unit": "nM"}]}, {"smiles": "Cc1ccc2c(-c3nc(Nc4cc(CN5C[C@@H](C)NC6(CC6)C5)cc(C5CC5)c4)ncc3Cl)c[nH]c2c1", "note": "[Example 27, (R)-5-chloro-N-(3-cyclopropyl-5-((5-methyl-4,7-diazaspiro[2.5]octan-7-yl)methyl)phenyl)-4-(6-methyl-1H-indole-3-yl)pyrimidine-2-amine]", "values": [{"measurement": "Mice microsomal stability (%)", "setting": "[1]", "value": 69, "unit": "%"}, {"measurement": "Human microsomal stability (%)", "setting": "[2]", "value": 72, "unit": "%"}]}]}
